# Measured values taken from patent US10770169B2, “Method of providing a treatment to a subject based on a dynamic pathway map” (THE REGENTS OF THE UNIVERSITY OF CALIFORNIA, priority 2010, dated 2020).
# Columns and labels:
# [1] = system: luminal, basal, claudin-low and ERBB2AMP breast cancer cell lines; assay: Associations of clinically relevant subtypes and response (non-parametric ANOVA or t-test on GI50 ranks); assay type: cell-based, human; conditions: for Subtype specificity: Table 6, most sensitive subtype, FDR p<0.20
# Outline: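 Significance was set at FDR p<0.20 after combining p-values across three test sets. Subtype–response associations came from rank-based non-parametric ANOVA or t-tests on GI50. For three-class comparisons, post-hoc tests of each group against the rest identified the most sensitive group, with FDR correction.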
# [2] = system: panel of 55 breast cancer cell lines; assay: Cell growth inhibition assay (Cell Titer Glo, 72 h, 9 doses; GI50, TGI, LC50); assay type: cell-based, human; conditions: value is the negative log10 of mol/L
# [3] = 600MPE cell line, censored GI50 values
# [4] = AU565 cell line, censored GI50 values
# [5] = BT20 cell line, censored GI50 values
# [6] = BT474 cell line, censored GI50 values
# [7] = BT483 cell line, censored GI50 values
# [8] = BT549 cell line, censored GI50 values
# [9] = CAMA1 cell line, censored GI50 values
# [10] = HCC38 cell line, censored GI50 values
# [11] = HCC70 cell line, censored GI50 values
# [12] = HCC202 cell line, censored GI50 values
# [13] = HCC1143 cell line, censored GI50 values
# [14] = HCC1187 cell line, censored GI50 values
# [15] = HCC1395 cell line, censored GI50 values
# [16] = HCC1419 cell line, censored GI50 values
# [17] = HCC1428 cell line, censored GI50 values
# [18] = HCC1500 cell line, censored GI50 values
# [19] = HCC1806 cell line, censored GI50 values
# [20] = HCC1937 cell line, censored GI50 values
# [21] = HCC1954 cell line, censored GI50 values
# [22] = HCC2185 cell line, censored GI50 values
# [23] = HCC3153 cell line, censored GI50 values
# [24] = LY2 cell line, censored GI50 values
# [25] = MCF7 cell line, censored GI50 values
# [26] = MDAMB134VI cell line, censored GI50 values
# [27] = MDAMB157 cell line, censored GI50 values
# [28] = MDAMB175VII cell line, censored GI50 values
# [29] = MDAMB231 cell line, censored GI50 values
# [30] = MDAMB361 cell line, censored GI50 values
# [31] = MDAMB415 cell line, censored GI50 values
# [32] = MDAMB436 cell line, censored GI50 values
# [33] = MDAMB453 cell line, censored GI50 values
# [34] = MDAMB468 cell line, censored GI50 values
# [35] = SKBR3 cell line, censored GI50 values
# [36] = SUM149PT cell line, censored GI50 values
# [37] = SUM159PT cell line, censored GI50 values
# [38] = SUM185PE cell line, censored GI50 values
# [39] = SUM225CWN cell line, censored GI50 values
# [40] = SUM1315MO2 cell line, censored GI50 values
smiles,measurement,setting,value
CC(/C=C/C(=O)NO)=C\[C@@H](C)C(=O)c1ccc(N(C)C)cc1 [Trichostatin A],Subtype specificity,[1],Luminal
same,GI50,[2]; [3],5.18
same,GI50,[2]; [4],5.43
same,GI50,[2]; [5],4.81
same,GI50,[2]; [6],5.00
same,GI50,[2]; [7],5.00
same,GI50,[2]; [8],5.13
same,GI50,[2]; [9],5.57
same,GI50,[2]; [10],5.22
same,GI50,[2]; [11],4.84
same,GI50,[2]; [12],6.04
same,GI50,[2]; [13],4.77
same,GI50,[2]; [14],5.32
same,GI50,[2]; [15],4.50
same,GI50,[2]; [16],4.85
same,GI50,[2]; [17],5.73
same,GI50,[2]; [18],4.82
same,GI50,[2]; [19],4.97
same,GI50,[2]; [20],4.82
same,GI50,[2]; [21],4.95
same,GI50,[2]; [22],4.79
same,GI50,[2]; [23],4.62
same,GI50,[2]; [24],4.86
same,GI50,[2]; [25],5.16
same,GI50,[2]; [26],5.17
same,GI50,[2]; [27],4.68
same,GI50,[2]; [28],5.23
same,GI50,[2]; [29],5.26
same,GI50,[2]; [30],5.09
same,GI50,[2]; [31],4.90
same,GI50,[2]; [32],4.67
same,GI50,[2]; [33],5.23
same,GI50,[2]; [34],4.85
same,GI50,[2]; [35],5.21
same,GI50,"[2]; SUM52PE cell line, censored GI50 values",5.57
same,GI50,[2]; [36],5.14
same,GI50,[2]; [37],5.23
same,GI50,[2]; [38],4.76
same,GI50,[2]; [39],4.85
same,GI50,[2]; [40],4.31
same,GI50,"[2]; T47D cell line, censored GI50 values",5.44
same,GI50,"[2]; UACC812 cell line, censored GI50 values",5.04
same,GI50,"[2]; UACC893 cell line, censored GI50 values",5.54
same,GI50,"[2]; ZR75B cell line, censored GI50 values",5.30
same,GI50,"[2]; ZR751 cell line, censored GI50 values",4.74
same,GI50,[2]; cell line 600MPE,5.18
same,GI50,[2]; cell line AU565,5.43
same,GI50,[2]; cell line BT20,4.81
same,GI50,[2]; cell line BT474,5.00
same,GI50,[2]; cell line BT483,5.00
same,GI50,[2]; cell line BT549,5.13
same,GI50,[2]; cell line CAMA1,5.57
same,GI50,[2]; cell line HCC38,5.22
same,GI50,[2]; cell line HCC70,4.84
same,GI50,[2]; cell line HCC202,6.04
same,GI50,[2]; cell line HCC1143,4.77
same,GI50,[2]; cell line HCC1187,5.32
same,GI50,[2]; cell line HCC1395,4.50
same,GI50,[2]; cell line HCC1419,4.85
same,GI50,[2]; cell line HCC1428,5.73
same,GI50,[2]; cell line HCC1500,4.82
same,GI50,[2]; cell line HCC1806,4.97
same,GI50,[2]; cell line HCC1937,4.82
same,GI50,[2]; cell line HCC1954,4.95
same,GI50,[2]; cell line HCC2185,4.79
same,GI50,[2]; cell line HCC3153,4.62
same,GI50,[2]; cell line LY2,4.86
same,GI50,[2]; cell line MCF7,5.16
same,GI50,[2]; cell line MDAMB134V,5.17
same,GI50,[2]; cell line MDAMB157,4.68
same,GI50,[2]; cell line MDAMB175V,5.23
same,GI50,[2]; cell line MDAMB231,5.26
same,GI50,[2]; cell line MDAMB361,5.09
same,GI50,[2]; cell line MDAMB415,4.90
same,GI50,[2]; cell line MDAMB436,4.67
same,GI50,[2]; cell line MDAMB453,5.23
same,GI50,[2]; cell line MDAMB468,4.85
same,GI50,[2]; cell line SKBR3,5.21
same,GI50,[2]; cell line SUM52PE,5.57
same,GI50,[2]; cell line SUM149PT,5.14
same,GI50,[2]; cell line SUM159PT,5.23
same,GI50,[2]; cell line SUM185PE,4.76
same,GI50,[2]; cell line SUM225CWN,4.85
same,GI50,[2]; cell line SUM1315MO,4.31
same,GI50,[2]; cell line T47D,5.44
same,GI50,[2]; cell line UACC812,5.04
same,GI50,[2]; cell line UACC893,5.54
same,GI50,[2]; cell line ZR75B,5.30
same,GI50,[2]; cell line ZR751,4.74
CCNCCCCNCCCCNCCCCNCCCCNCC=CCNCCCCNCCCCNCCCCNCCCCNCC.Cl.Cl.Cl.Cl.Cl.Cl.Cl.Cl.Cl.Cl (stereo in doubt) [CGC-11144],association of response with ERBB2 amplification,[1],negatively associated with ERBB2 amplification
same,Subtype specificity,[1],not ERBB2AMP
same,GI50,[2]; [3],6.49
same,GI50,[2]; [4],6.31
same,GI50,[2]; [5],6.52
same,GI50,[2]; [6],6.02
same,GI50,[2]; [7],6.25
same,GI50,[2]; [8],6.65
same,GI50,[2]; [9],6.40
same,GI50,[2]; [10],6.81
same,GI50,[2]; [11],6.55
same,GI50,[2]; [12],6.26
same,GI50,[2]; [13],6.88
same,GI50,[2]; [14],6.02
same,GI50,[2]; [15],6.20
same,GI50,[2]; [16],6.30
same,GI50,[2]; [17],6.33
same,GI50,[2]; [18],6.65
same,GI50,[2]; [19],6.71
same,GI50,[2]; [20],6.76
same,GI50,[2]; [21],6.56
same,GI50,[2]; [22],6.60
same,GI50,[2]; [23],6.72
same,GI50,[2]; [24],5.18
same,GI50,[2]; [25],6.33
same,GI50,[2]; [26],6.38
same,GI50,[2]; [27],6.96
same,GI50,[2]; [28],6.75
same,GI50,[2]; [29],4.66
same,GI50,[2]; [30],5.78
same,GI50,[2]; [31],6.78
same,GI50,[2]; [32],6.06
same,GI50,[2]; [33],6.28
same,GI50,[2]; [34],6.17
same,GI50,[2]; [35],5.30
same,GI50,[2]; [36],6.53
same,GI50,[2]; [37],6.60
same,GI50,[2]; [38],6.68
same,GI50,[2]; [39],5.45
same,GI50,[2]; [40],5.69
same,GI50,[2]; cell line 600MPE,6.49
same,GI50,[2]; cell line AU565,6.31
same,GI50,[2]; cell line BT20,6.52
same,GI50,[2]; cell line BT474,6.02
same,GI50,[2]; cell line BT483,6.25
same,GI50,[2]; cell line BT549,6.65
same,GI50,[2]; cell line CAMA1,6.40
same,GI50,[2]; cell line HCC38,6.81
same,GI50,[2]; cell line HCC70,6.55
same,GI50,[2]; cell line HCC202,6.26
same,GI50,[2]; cell line HCC1143,6.88
same,GI50,[2]; cell line HCC1187,6.02
same,GI50,[2]; cell line HCC1395,6.20
same,GI50,[2]; cell line HCC1419,6.30
same,GI50,[2]; cell line HCC1428,6.33
same,GI50,[2]; cell line HCC1500,6.65
same,GI50,[2]; cell line HCC1806,6.71
same,GI50,[2]; cell line HCC1937,6.76
same,GI50,[2]; cell line HCC1954,6.56
same,GI50,[2]; cell line HCC2185,6.60
same,GI50,[2]; cell line HCC3153,6.72
same,GI50,[2]; cell line LY2,5.18
same,GI50,[2]; cell line MCF7,6.33
same,GI50,[2]; cell line MDAMB134V,6.38
same,GI50,[2]; cell line MDAMB157,6.96
same,GI50,[2]; cell line MDAMB175V,6.75
same,GI50,[2]; cell line MDAMB231,4.66
same,GI50,[2]; cell line MDAMB361,5.78
same,GI50,[2]; cell line MDAMB415,6.78
same,GI50,[2]; cell line MDAMB436,6.06
same,GI50,[2]; cell line MDAMB453,6.28
same,GI50,[2]; cell line MDAMB468,6.17
same,GI50,[2]; cell line SKBR3,5.30
same,GI50,[2]; cell line SUM52PE,6.79
same,GI50,[2]; cell line SUM149PT,6.53
same,GI50,[2]; cell line SUM159PT,6.60
same,GI50,[2]; cell line SUM185PE,6.68
same,GI50,[2]; cell line SUM225CWN,5.45
same,GI50,[2]; cell line SUM1315MO,5.69
same,GI50,[2]; cell line T47D,6.96
same,GI50,[2]; cell line UACC812,6.78
same,GI50,[2]; cell line UACC893,6.60
same,GI50,[2]; cell line ZR751,6.48
